# In patent US9426996B2, “Use of benzoxaboroles as volatile antimicrobial agents on meats, plants, or plant parts” (AgroFresh Inc., priority 2013, dated 2016):
# Experiments:
# Botrytis cinerea [1] = experiment: in vivo volatile bioassay using green table grape
# Protocol: In order to assess the in vivo activity of volatile antimicrobial compounds, a volatile bioassay is developed using green table grape. Fruit are placed individually inside a 20 mL scintillation vial, with the stem wound facing upwards. The fresh stem wound is inoculated with 10 μL of 1×10^6 per mL Botrytis cinerea spore suspension. Whatman filter paper (Cat. No. 1822-024) is placed inside duplicate vial caps. […] The acetone is permitted to evaporate for 5 minutes. The vials are then capped with the lids containing the fungicide, and placed for 14 days at 4° C. After storage, fruit are evaluated for incidence of disease and appearance of phytotoxicity.
# Botrytis cinerea [2] = experiment: in vivo sublimation bioassay on fruit, 1 mg/L (Example 31); conditions: for Incidence (%) / Severity (0-4): 1 mg/L sublimed, three day treatment plus three days at 21° C.
# Protocol: (§1) To assess the in vivo activity of volatile antimicrobial Compounds A and B (FIG. 1) in fruit, a volatile bioassay is developed using apple, pear, orange, strawberry, grape and blueberry.
# (§2) Two apples, 2 oranges, 2 pears, 8 strawberries, 16 grapes or 30 blueberries (per replicate, in duplicate) are placed in a clamshell with the stem end facing up for all fruits except for strawberry (stem end facing downwards). A fresh wound is inoculated with 20 μL 1×10^6 per mL Penicillium expansum spore suspension (apple and pear), 20 μL 1×10^6 per mL Penicillium digitatum spore suspension (orange), and 20 μL (strawberry and grape) or 10 μL (blueberry) of 1×10^6 per mL Botrytis cinerea spore suspension. The clamshells are placed inside a 117 L Rubbermaid storage box (Cat #2244) with lids closed. […] After treatment, fruits are held for an additional three days at 21° C., then evaluated for disease incidence (mm diameter of browning or water-soaked lesions) and pathogen sporulation (mm diameter) for apple, pear and orange, as well as Botrytis cinerea disease incidence (%) and severity (0 to 4) for strawberry, grape and blueberry, with results summarized in Table 30.
# Penicillium expansum = experiment: as above; conditions: 1 mg/L sublimed, three day treatment plus three days at 21° C.
# Protocol: as §1, §2
# Penicillium digitatum = experiment: as above
# Protocol: as §1, §2
# Botrytis cinerea [3] = experiment: white roses with natural inoculum, volatile treatment; format: in vivo; set-up: key to Severity (0-4): 0 = No disease; 1 = Browning and small lesions on the sepals or petals; 2 = Browning, petals covered with fungal spores; 3 = Browning, petals covered with fungal spores, some petal drop; 4 = Browning, petals covered with fungal spores, some flowers aborted
# Protocol: A similar test like the one described above is also performed on white roses with natural inoculum. Five white roses are placed in an 800 mL jar containing 200 mL of a common commercial flower preservative.
# Three jars are then placed in a 117 L Rubbermaid storage box (Cat #2244). Two small fans are place in opposite ends of the container to assist with the volatile distribution of compound A. The tub is closed tightly, and then Compound A is diluted in acetone, and then pipetted onto a 1.5 inch×1 inch cotton strip. The acetone is allowed to evaporate for five minutes. Compound A is then introduced to the containers by a sublimation device (copper tube heated to 200° C. with fan flow at 0.5 L/min) to achieve a final headspace concentration of 0.04, 0.2, 1 mg/L, through a ½″ side port that is sealed immediately after the application. Alternatively, Compound A is pipetted onto a 42.5 mm Whatman #1 filter disk (Cat. No. 1001-042), supported by a watch glass, where the acetone is allowed to evaporate for five minutes prior to sealing the container. The flowers are incubated for three days at 21° C. After treatment, flowers are evaluated for an additional two days for disease incidence and severity of the flower petals. Applying a treatment at 1 mg/L through sublimation results in 0% incidence. Rose petals after treatment with Compound A have no disease incidence, retained white color, and the roses had no petal drop.
# Botrytis cinerea [4] = experiment: in vivo strawberry assay comparing fog and sublimation; conditions: 10 mg/L, three day treatment plus three days at 21° C.
# Protocol: To compare the ability of Compound A when actively volatilized by different mechanisms, an in vivo assay using strawberry is performed. Eight strawberries are placed in a clamshell with stem end facing downwards. […] The clamshell is placed in a 10.8-cup SnapWare airtight container (Model #109842) and closed with the lids. Compound A is dissolved in acetone and volatilized through a sealable ½ inch side port by an ES-100-H SmartFog system (Reno, Nev.). Alternatively, Compound A, dissolved in acetone, is pipetted onto a cotton strip, where the acetone is allowed to evaporate for five minutes, and then introduced into the container by a sublimation device (copper tube heated to 200° C. with fan flow at 0.5 L/min) to achieve a final headspace concentration of 10 mg/L. The fruits are stored for three days at 21° C. After the three days of treatment, fruit are stored for an additional three days at 21° C., and then evaluated for incidence (%) and severity of disease (0 to 4).
# [5] = Orange, 1 mg/L sublimed, three day treatment plus three days at 21° C.
# [6] = 0.04 mg/L, Applied through sublimation
# [7] = 0.04 mg/L, Volatilized from Whatman Filter
# [8] = 0.2 mg/L, Applied through sublimation
# [9] = 0.2 mg/L, Volatilized from Whatman Filter
# [10] = 1 mg/L, Applied through sublimation
# [11] = 1 mg/L, Volatilized from Whatman Filter
compound,measurement,setting,value
OB1OCc2cc(F)ccc21 [Compound A],Botrytis inhibition % (in vivo),"Botrytis cinerea [1]; 0.005 mg per disk, 14 days at 4° C.",0%
same,Botrytis inhibition % (in vivo),"Botrytis cinerea [1]; 0.01 mg per disk, 14 days at 4° C.",0%
same,Botrytis inhibition % (in vivo),"Botrytis cinerea [1]; 0.023 mg per disk, 14 days at 4° C.",0%
same,Botrytis inhibition % (in vivo),"Botrytis cinerea [1]; 0.04 mg per disk, 14 days at 4° C.",100%
same,Botrytis inhibition % (in vivo),"Botrytis cinerea [1]; 0.08 mg per disk, 14 days at 4° C.",100%
same,Botrytis inhibition % (in vivo),"Botrytis cinerea [1]; 0.16 mg per disk, 14 days at 4° C.",100%
same,Botrytis inhibition % (in vivo),"Botrytis cinerea [1]; 0.31 mg per disk, 14 days at 4° C.",100%
same,Botrytis inhibition % (in vivo),"Botrytis cinerea [1]; 0.63 mg per disk, 14 days at 4° C.",100%
same,Botrytis inhibition % (in vivo),"Botrytis cinerea [1]; 1.25 mg per disk, 14 days at 4° C.",100%
same,lowest rate with 100% control of Botrytis cinerea,Botrytis cinerea [1]; 14 days at 4° C.,0.04 mg/disk
same,appearance of phytotoxicity,Botrytis cinerea [1]; any of the rates evaluated (2.5 to 0.0024 mg/disk),no evidence of phytotoxicity
same,in vivo antimicrobial control of B. cinerea,"Botrytis cinerea [2]; 1 mg/L, volatile fungicide on different hosts",100%
same,Incidence (%),Botrytis cinerea [2]; Blueberry,0.0%
same,Severity (0-4),Botrytis cinerea [2]; Blueberry,0.0
same,Incidence (%),Botrytis cinerea [2]; Grape,0.0%
same,Severity (0-4),Botrytis cinerea [2]; Grape,0.0
same,Incidence (%),Botrytis cinerea [2]; Strawberry,0.0%
same,Severity (0-4),Botrytis cinerea [2]; Strawberry,0.0
same,Browning (mm),Penicillium expansum; Apple,0.8 mm
same,Sporulation (mm),Penicillium expansum; Apple,0.0 mm
same,Browning (mm),Penicillium expansum; Pear,4.7 mm
same,Sporulation (mm),Penicillium expansum; Pear,0.0 mm
same,in vivo antimicrobial control of P. digitatum,"Penicillium digitatum; 1 mg/L, volatile fungicide",100%
same,Sporulation (mm),Penicillium digitatum; [5],0.0 mm
same,Water soaked lesion,Penicillium digitatum; [5],0.0 mm
same,Incidence (%),Botrytis cinerea [3]; [6],46.7%
same,Severity (0-4),Botrytis cinerea [3]; [6],1.7
same,Incidence (%),Botrytis cinerea [3]; [7],46.7%
same,Severity (0-4),Botrytis cinerea [3]; [7],1.1
same,Incidence (%),Botrytis cinerea [3]; [8],13.3%
same,Severity (0-4),Botrytis cinerea [3]; [8],0.5
same,Incidence (%),Botrytis cinerea [3]; [9],66.7%
same,Severity (0-4),Botrytis cinerea [3]; [9],1.8
same,Incidence (%),Botrytis cinerea [3]; [10],0%
same,Severity (0-4),Botrytis cinerea [3]; [10],0
same,Incidence (%),Botrytis cinerea [3]; [11],53.3%
same,Severity (0-4),Botrytis cinerea [3]; [11],1.6
same,Incidence (%),Botrytis cinerea [4]; Fog,6.3%
same,Severity (0 to 4),Botrytis cinerea [4]; Fog,0.03
same,Incidence (%),Botrytis cinerea [4]; Sublimation,0.0%
same,Severity (0 to 4),Botrytis cinerea [4]; Sublimation,0.0
